Key:
[1] = target: T1, His-tagged recombinant human AXL cytoplasmic domain (Homo sapiens, UniProt P30530); assay: AXL Enzyme Assay (LanthaScreen Eu Kinase Binding); settings: averaged IC50; 60-minute incubation at 22° C.; TR-FRET
T1 construct: His-tagged recombinant human AXL cytoplasmic domain
T1 sequence (P30530 473-894 limits assumed): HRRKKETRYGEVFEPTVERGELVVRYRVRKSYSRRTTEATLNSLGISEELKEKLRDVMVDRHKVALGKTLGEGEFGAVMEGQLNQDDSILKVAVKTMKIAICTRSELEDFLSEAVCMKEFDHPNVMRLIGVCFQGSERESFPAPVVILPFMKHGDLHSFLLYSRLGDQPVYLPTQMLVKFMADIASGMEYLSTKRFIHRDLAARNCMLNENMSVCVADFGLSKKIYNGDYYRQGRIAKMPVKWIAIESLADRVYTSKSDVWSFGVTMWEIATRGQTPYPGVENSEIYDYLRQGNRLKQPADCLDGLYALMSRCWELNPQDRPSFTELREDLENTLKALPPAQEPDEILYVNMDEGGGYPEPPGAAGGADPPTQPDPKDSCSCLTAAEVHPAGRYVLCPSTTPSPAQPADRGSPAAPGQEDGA
Method: (§1) Compounds disclosed herein were screened for their ability to inhibit AXL kinase using Invitrogen's LanthaScreen™Eu Kinase Binding technology. His-tagged recombinant human AXL cytoplasmic domain was incubated with 20 nM Alexa-Fluor® Tracer 236 (PR9078A), 2 nM biotinylated anti-His (Cat. No. M4408), and 2 nM europium-labeled Streptavidin (Cat. No. PV5899) along with test compound in a buffer consisting of 25 mM HEPES, pH 7.4, 10 mM MgCl2, 0.01% Triton X-100, and 2% DMSO. Compounds were typically prepared in a threefold serial dilution in DMSO and added to the assay to give the appropriate final concentration. After a 60-minute incubation at 22° C., the reaction was measured using a PerkinElmer EnVision multimode plate reader via TR-FRET dual wavelength detection, and the percent of control (POC) was calculated using a ratiometric emission factor. […] The POC values are fit to a 4 parameter logistic curve and the IC50 value is point where the curve crosses 50 POC.

[2] = target: T2, His-tagged recombinant human MER cytoplasmic domain (Homo sapiens, UniProt Q12866); assay: MER Enzyme Assay (LanthaScreen Eu Kinase Binding); settings: averaged IC50; MER 5 nM; 60-minute incubation at 22° C.; TR-FRET
T2 construct: His-tagged recombinant human MER cytoplasmic domain
T2 sequence (Q12866 527-999 limits assumed): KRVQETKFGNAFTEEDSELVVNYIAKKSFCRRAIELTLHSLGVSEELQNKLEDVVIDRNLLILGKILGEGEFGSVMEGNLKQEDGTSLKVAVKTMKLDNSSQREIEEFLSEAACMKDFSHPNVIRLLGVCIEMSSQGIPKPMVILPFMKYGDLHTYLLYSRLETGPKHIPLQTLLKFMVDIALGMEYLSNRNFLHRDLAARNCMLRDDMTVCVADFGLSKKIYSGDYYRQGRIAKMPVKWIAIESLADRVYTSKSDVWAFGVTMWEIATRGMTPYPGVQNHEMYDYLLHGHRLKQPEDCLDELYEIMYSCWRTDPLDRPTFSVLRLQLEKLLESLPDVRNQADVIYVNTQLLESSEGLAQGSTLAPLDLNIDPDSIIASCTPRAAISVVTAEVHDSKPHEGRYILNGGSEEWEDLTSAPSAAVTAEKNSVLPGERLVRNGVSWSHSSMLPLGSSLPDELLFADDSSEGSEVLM
Method: as §1, with “human MER” for “human AXL”, “domain (5 nM)” for “domain”, “mM MgCl 2,” for “mM MgCl2,”

[3] = target: T3, MET (wt) GST-tagged recombinant human MET kinase domain (Homo sapiens, UniProt P08581); assay: c-Met Enzyme Assay, wild type (LanthaScreen Eu Kinase Binding); settings: averaged IC50; MET (wt) 10 nM; 60-minute incubation at 22° C.; read-out: SigChem WT IC50
T3 construct: GST-tagged recombinant human MET kinase domain; purchased Signal Chem
Method: (§2) The affinity of compound binding to wild type and mutant human MET kinases was measured using Invitrogen's LanthaScreen™ Eu Kinase Binding technology. Briefly, GST-tagged recombinant human MET kinase domain from Signal Chem (see Table 8 below for concentration in assay) was incubated with 50 nM Alexa-Fluor® Tracer 236 (Invitrogen Cat No. PR9078A) and 2 nM Europium-anti-GST (Invitrogen Cat. No. A15116) along with test compound in a buffer consisting of 25 mM HEPES, pH 7.4, 10 mM MgCl2, 0.01% Triton X-100, 1mM DTT, and 2% DMSO. Compounds were typically prepared in a three-fold serial dilution in DMSO and added to the assay to give the appropriate final concentration. After a 60-minute incubation at 22° C., the reaction was measured using a PerkinElmer EnVision multimode plate reader via TR-FRET dual wavelength detection, and the percent of control (POC) calculated using a ratiometric emission factor. […] The POC values were fit to a 4 parameter logistic curve and the IC50 value is point where the curve crosses 50 POC.

[4] = target: T4, human MET kinase del Ex14 (Homo sapiens, UniProt P08581, DEL963-1009); assay: c-Met Enzyme Assay, del Ex14 mutant; format: binding; settings: averaged IC50; del Ex14 5 nM; 60-minute incubation at 22° C.; read-out: Del14 IC50
T4 construct: GST-tagged recombinant human MET kinase domain; purchased Signal Chem
Method: as §2

human MET kinase D1228H = target: T5, human MET kinase D1228H (Homo sapiens, UniProt P08581, D1228H); assay: c-Met Enzyme Assay, D1228H mutant; format: binding; settings: averaged IC50; D1228H 2 nM; 60-minute incubation at 22° C.; read-out: D1228 H IC50
T5 construct: GST-tagged recombinant human MET kinase domain; purchased Signal Chem
Method: as §2

human MET kinase Y1230C = target: T6, human MET kinase Y1230C (Homo sapiens, UniProt P08581, Y1230C); assay: c-Met Enzyme Assay, Y1230C mutant; format: binding; settings: averaged IC50; Y1230C 2 nM; 60-minute incubation at 22° C.; read-out: Y1230 C IC50
T6 construct: GST-tagged recombinant human MET kinase domain; purchased Signal Chem
Method: as §2

human MET kinase Y1230S = target: T7, human MET kinase Y1230S (Homo sapiens, UniProt P08581, Y1230S); assay: c-Met Enzyme Assay, Y1230S mutant; format: binding; settings: averaged IC50; Y1230S 8 nM; 60-minute incubation at 22° C.; read-out: Y1230 S IC50
T7 construct: GST-tagged recombinant human MET kinase domain; purchased Signal Chem
Method: as §2

T6 sequence (P08581 1078-1345 Y1230C): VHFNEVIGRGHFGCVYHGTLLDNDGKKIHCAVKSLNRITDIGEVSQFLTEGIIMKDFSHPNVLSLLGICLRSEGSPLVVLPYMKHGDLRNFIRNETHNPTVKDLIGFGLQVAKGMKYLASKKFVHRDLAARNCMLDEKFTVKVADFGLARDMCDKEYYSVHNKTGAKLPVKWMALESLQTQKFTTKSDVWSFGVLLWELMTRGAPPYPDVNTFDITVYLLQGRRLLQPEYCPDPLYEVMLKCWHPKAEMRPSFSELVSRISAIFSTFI
T3 sequence (P08581 1078-1345 limits assumed): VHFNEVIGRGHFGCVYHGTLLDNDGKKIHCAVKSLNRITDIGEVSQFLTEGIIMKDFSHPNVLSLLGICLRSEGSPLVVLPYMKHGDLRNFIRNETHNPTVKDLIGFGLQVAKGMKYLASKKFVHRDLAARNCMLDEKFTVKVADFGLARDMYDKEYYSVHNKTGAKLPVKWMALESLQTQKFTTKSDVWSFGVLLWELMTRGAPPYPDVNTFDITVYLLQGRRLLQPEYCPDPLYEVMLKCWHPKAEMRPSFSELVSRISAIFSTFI
T7 sequence (P08581 1078-1345 Y1230S): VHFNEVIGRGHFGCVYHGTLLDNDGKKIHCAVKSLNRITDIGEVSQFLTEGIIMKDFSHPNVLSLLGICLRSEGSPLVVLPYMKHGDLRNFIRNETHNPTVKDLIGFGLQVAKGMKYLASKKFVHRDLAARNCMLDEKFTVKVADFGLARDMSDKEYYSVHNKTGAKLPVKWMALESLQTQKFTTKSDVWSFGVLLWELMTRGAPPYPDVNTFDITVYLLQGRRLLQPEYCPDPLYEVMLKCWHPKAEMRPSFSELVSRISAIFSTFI
T5 sequence (P08581 1078-1345 D1228H): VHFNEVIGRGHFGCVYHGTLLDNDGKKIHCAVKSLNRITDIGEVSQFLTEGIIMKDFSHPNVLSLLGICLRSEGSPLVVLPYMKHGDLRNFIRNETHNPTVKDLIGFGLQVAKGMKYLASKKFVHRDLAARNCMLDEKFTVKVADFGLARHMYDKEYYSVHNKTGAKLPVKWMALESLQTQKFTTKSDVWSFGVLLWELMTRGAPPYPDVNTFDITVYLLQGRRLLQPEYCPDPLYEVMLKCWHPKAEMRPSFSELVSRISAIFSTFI
T4 sequence (P08581 with tags, fused parts or gaps DEL963-1009 limits assumed): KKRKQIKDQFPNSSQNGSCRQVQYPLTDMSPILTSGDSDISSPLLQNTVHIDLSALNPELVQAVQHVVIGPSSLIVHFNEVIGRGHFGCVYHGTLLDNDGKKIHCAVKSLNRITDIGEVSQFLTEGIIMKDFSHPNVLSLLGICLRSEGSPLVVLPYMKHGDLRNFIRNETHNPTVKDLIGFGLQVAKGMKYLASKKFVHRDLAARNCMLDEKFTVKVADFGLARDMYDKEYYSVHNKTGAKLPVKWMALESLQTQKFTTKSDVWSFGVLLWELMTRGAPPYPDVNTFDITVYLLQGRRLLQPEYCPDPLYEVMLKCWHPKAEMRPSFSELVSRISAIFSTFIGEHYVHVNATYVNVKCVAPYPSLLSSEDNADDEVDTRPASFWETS

CCOc1ccc2c(Oc3ccc(NC(=O)c4cn(C(C)C)cc(-c5ccc(F)cc5)c4=O)nc3)ccnc2c1 [Example 52, N-(5-((7-ethoxyquinolin-4-yl)oxy)pyridin-2-yl)-5-(4-fluorophenyl)-1-isopropyl-4-oxo-1,4-dihydropyridine-3-carboxamide]
IC50 [1]: 4 nM
IC50 [2]: 11 nM
IC50 [3]: 14.7 nM
IC50 [4]: 10.3 nM
IC50 (human MET kinase D1228H): 14.5 nM
IC50 (human MET kinase Y1230C): 13.1 nM
IC50 (human MET kinase Y1230S): 14.3 nM

COc1cc2nccc(Oc3ccc(NC(=O)c4cn(CC5CCOCC5)cc(-c5ccc(F)cc5)c4=O)nc3)c2cc1OC [Example 8, N-(5-((6,7-dimethoxyquinolin-4-yl)oxy)pyridin-2-yl)-5-(4-fluorophenyl)-4-oxo-1-((tetrahydro-2H-pyran-4-yl)methyl)-1,4-dihydropyridine-3-carboxamide]
IC50 [1]: 2 nM
IC50 [2]: 4 nM
IC50 [3]: 4.1 nM
IC50 [4]: 3.9 nM
IC50 (human MET kinase D1228H): 7.2 nM
IC50 (human MET kinase Y1230C): 7.4 nM
IC50 (human MET kinase Y1230S): 4.3 nM

COc1cc2nccc(Oc3ccc(NC(=O)c4cn(CCN(C)C)cc(-c5ccc(F)cc5F)c4=O)nc3)c2cc1OC [Example 44, 5-(2,4-difluorophenyl)-N-(5-((6,7-dimethoxyquinolin-4-yl)oxy)pyridin-2-yl)-1-(2-(dimethylamino)ethyl)-4-oxo-1,4-dihydropyridine-3-carboxamide]
IC50 [1]: 2 nM
IC50 [2]: 3 nM
IC50 [3]: 2.2 nM
IC50 [4]: 2.1 nM
IC50 (human MET kinase D1228H): 1.9 nM
IC50 (human MET kinase Y1230C): 1.7 nM
IC50 (human MET kinase Y1230S): 2.1 nM

COc1cc2nccc(Oc3ccc(NC(=O)c4cn(C5CCOCC5)cc(-c5ccc(F)cc5)c4=O)nc3)c2cc1OC [Example 12, N-(5((6,7-dimethoxyquinolin-4-yl)oxy)pyridin-2-yl)-5-(4-fluorophenyl)-4-oxo-1-(tetrahydro-2H-pyran-4-yl)-1,4-dihydropyridine-3-carboxamide]
IC50 [1]: 2 nM
IC50 [2]: 4 nM
IC50 [3]: 5.4 nM
IC50 [4]: 5.6 nM
IC50 (human MET kinase D1228H): 8.4 nM
IC50 (human MET kinase Y1230C): 5.5 nM
IC50 (human MET kinase Y1230S): 4.6 nM

COc1cc2nccc(Oc3ccc(NC(=O)c4cn(CCC(C)C)cc(-c5ccc(F)c(F)c5)c4=O)nc3)c2cc1OC [Example 35, 5-(3,4-difluorophenyl)-N-(5-((6,7-dimethoxyquinolin-4yl)oxy)pyridin-2-yl)-1-isopentyl-4-oxo-1,4-dihydropyridine-3-carboxamide]
IC50 [1]: 6 nM
IC50 [2]: 15 nM
IC50 [3]: 13.8 nM
IC50 [4]: 14 nM
IC50 (human MET kinase D1228H): 8.3 nM
IC50 (human MET kinase Y1230C): 10.5 nM
IC50 (human MET kinase Y1230S): 8.5 nM

COc1cc2nccc(Oc3ccc(NC(=O)c4cn(C)c(C(C)C)c(-c5ccc(F)cc5)c4=O)nc3)c2cc1OC [Example 45, N-(5-((6,7-dimethoxyquinolin-4-yl)oxy)pyridin-2-yl)-5-(4-fluorophenyl)-6-isopropyl-1-methyl-4-oxo-1,4-dihydropyridine-3-carboxamide]
IC50 [1]: 5 nM
IC50 [2]: 27 nM
IC50 [3]: 4.4 nM
IC50 [4]: 5.7 nM
IC50 (human MET kinase D1228H): 11.1 nM
IC50 (human MET kinase Y1230C): 4.4 nM
IC50 (human MET kinase Y1230S): 6.2 nM

COc1cc2nccc(Oc3ccc(NC(=O)c4cn(C)cc(-c5ccc(F)cc5)c4=O)nc3)c2cc1OC [Example 2]
IC50 [1]: 1 nM
IC50 [2]: 3 nM
IC50 [3]: 6.4 nM
IC50 [4]: 5.3 nM
IC50 (human MET kinase D1228H): 16.6 nM
IC50 (human MET kinase Y1230C): 9.5 nM
IC50 (human MET kinase Y1230S): 9.8 nM

COc1cc2nccc(Oc3ccc(NC(=O)c4cn(CCN(C)C)cc(-c5ccc(Cl)cc5)c4=O)nc3)c2cc1OC [Example 42]
IC50 [1]: 2 nM
IC50 [2]: 9 nM
IC50 [3]: 3.2 nM
IC50 [4]: 1.9 nM
IC50 (human MET kinase D1228H): 2.4 nM
IC50 (human MET kinase Y1230C): 2.4 nM
IC50 (human MET kinase Y1230S): 2.7 nM

COc1cc2nccc(Oc3ccc(NC(=O)c4cn(CCC(C)C)cc(-c5ccc(F)cc5)c4=O)nc3)c2cc1OC [Example 34, N-(5-((6,7-dimethoxyquinolin-4yl)oxy)pyridin-2-yl)-5-(4-fluorophenyl)-1-isopentyl-4-oxo-1,4-dihydropyridine-3-carboxamide]
IC50 [1]: 2 nM
IC50 [2]: 9 nM
IC50 [3]: 4 nM
IC50 [4]: 5.7 nM
IC50 (human MET kinase D1228H): 5.5 nM
IC50 (human MET kinase Y1230C): 4.2 nM
IC50 (human MET kinase Y1230S): 4.1 nM

COc1cc2nccc(Oc3ccc(NC(=O)c4cn(C(C)C)cc(-c5ccc(F)cc5F)c4=O)nc3)c2cc1OC [Example 4]
IC50 [1]: 1 nM
IC50 [2]: 2 nM
IC50 [3]: 2.1 nM
IC50 [4]: 1.7 nM
IC50 (human MET kinase D1228H): 3.2 nM
IC50 (human MET kinase Y1230C): 2.8 nM
IC50 (human MET kinase Y1230S): 2.2 nM

COc1cc2nc(C)cc(Oc3ccc(NC(=O)c4cn(C(C)C)cc(-c5ccc(F)cc5)c4=O)nc3)c2cc1OC [Example 53, N-(5-((6,7-dimethoxy-2-methylquinolin-4-yl)oxy)pyridin-2-yl)-5-(4-fluorophenyl)-1-isopropyl-4-oxo-1,4-dihydropyridine-3-carboxamide]
IC50 [1]: 448 nM
IC50 [2]: 950 nM
IC50 [3]: 3070 nM
IC50 (human MET kinase D1228H): 4220 nM
IC50 (human MET kinase Y1230C): 3310 nM
IC50 (human MET kinase Y1230S): 3710 nM

COc1cc2nccc(Oc3ccc(NC(=O)c4cn(C(C)C)c(C(C)C)c(-c5ccc(F)cc5)c4=O)nc3)c2cc1OC [Example 38, N-(5-((6,7-dimethoxyquinolin-4yl)oxy)pyridin-2-yl)-5-(4-fluorophenyl)-1,6-diisopropyl-4-oxo-1,4-dihydropyridine-3-carboxamide]
IC50 [1]: 3 nM
IC50 [2]: 6 nM

From patent US20200216416A1, “QUINOLINE COMPOUNDS AS INHIBITORS OF TAM AND MET KINASES” (Array BioPharma Inc., priority 2019, published 2020)
